Among the data in the METLIN SMRT retention time set (Domingo-Almenara et al. 2019) are RP-LC retention time values, retold here.

A short description of this data set: gradient 5% acetonitrile 3 min, to 50% in 2 min, to 85% in 15 min, held 3 min, 100 µL/min. Particulars: column: Zorbax Extend-C18 2.1 x 50 mm; eluents: water / acetonitrile, 0.1% formic acid. A digest of the protocol: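 Each retention time is based on an adduct peak selected computationally and verified by manual inspection. Measurements used HPLC–quadrupole time-of-flight mass spectrometry in positive and negative ionization mode on mixtures of ~100 pure standards. Chromatography ran on a Zorbax Extend-C18 column (2.1 × 50 mm, 1.8 μm) at 100 μL/min with water and acetonitrile, each containing 0.1% formic acid, and dead and dwell volumes of 40 μL and 900 μL.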
`COc1ccc(-c2nc3cnccn3c2Nc2cccc(Cl)c2)cc1` had an RP-LC retention time of 961 s.
`CC(C)NC(=O)c1ccc(OCC2CCCN(C(=O)c3ccc(Cl)cc3)C2)cc1` (centres undefined) returned an RP-LC retention time of 881 s.
`COCCn1cc(CCNC(=O)Nc2c(C)cccc2C)c2cccnc21`: the RP-LC retention time came out at 686 s.
On to `CSc1ccc(CNC(=O)CN2CC=C(c3cnn(-c4ccccc4)c3)CC2)cc1`, for which the RP-LC retention time amounted to 720 s.
In turn, `O=C(NCc1ccccc1)c1cn(Cc2ccc(NC(=O)C3CCCCC3)cc2)cn1` registered an RP-LC retention time of 749 s.
As for `COC(=O)[C@H](Cc1c[nH]c2ccccc12)NC(=O)c1ccc2c(c1)C(=O)N(C1CC1)C2=O`, the RP-LC retention time was 830 s.
Compound `CCOC(=O)c1cccc(NC(=O)N2CCN(c3nc4ccccc4n3C)CC2)c1` registered an RP-LC retention time of 644 s.
In the case of `Cc1cc(C(=O)NC2CC2)c2cccc(Cl)c2n1`, the RP-LC retention time stood at 716 s.
Then `Cc1ccc(S(=O)(=O)N2C[C@@H](F)C[C@H]2C(=O)N2CCCCC2)c(C)c1`, with 874 s; and `CN1C(=O)CCCCC1C(=O)N1CCOCC1` (centres undefined), with 556 s.
With `COc1cc(CNC(=O)c2c(N3CCCC3=O)c3cc(F)ccc3n2C)cc(OC)c1OC` the figure was 791 s.
In turn, `COc1ccc(C(C)NC(=O)C2c3ccccc3CCN2C(=O)C2CC2)cc1OC` (centres undefined) showed an RP-LC retention time of 802 s.
As for `O=C(NCCCn1c(C(F)(F)F)nc2cccnc21)Nc1cccc(F)c1`, the RP-LC retention time was 811 s.
The compound `COCCN1C(=O)Cc2ccccc2C1C(=O)N1CCN(c2cccc(Cl)c2)CC1` (centres undefined) returned an RP-LC retention time of 849 s.
Regarding `Cc1cccc(CNC(=O)C2CCCN(c3nnc(C)c4c(C)n(-c5ccccc5)nc34)C2)c1` (centres undefined), the RP-LC retention time is 745 s.
The compound `O=C(Nc1nccs1)C1CCN(C(=O)c2ccc[nH]c2=O)CC1` gave an RP-LC retention time of 558 s.
Take `O=C(Cn1nc2n(c1=O)CCCCC2)Nc1cccc(Br)c1`: the RP-LC retention time was found to be 757 s.
Turning to `CCn1cc(-c2nc(C)c(C(=O)NC3CCCCC3)s2)c2cccnc21`, the RP-LC retention time was 988 s.
`COc1ccc(-c2ccnc3nc(-c4ccco4)nn23)c(F)c1` returned an RP-LC retention time of 819 s.
As for `CCCc1c(C(=O)NCC2CCCO2)nnn1-c1ccc(OC)cc1` (centres undefined), the RP-LC retention time was determined as 783 s.
Then `CCOc1ccc(NC(=O)C2CCN(S(=O)(=O)c3ccc4c(c3)sc(=O)n4C)CC2)cc1`, with 798 s.
`CCN1CCN(C(=O)c2nnc(-c3ccc(S(=O)(=O)N4CCCCC4)cc3)o2)CC1`: the RP-LC retention time was found to be 665 s.
Compound `CCOC(=O)CNC(=O)N1CCc2nc(-c3ccccc3)ncc2C1` displayed an RP-LC retention time of 720 s.
With `O=C(NC1CC1)C1CC(=O)N(c2ccc3c(c2)CCN3C(=O)C2CCC2)C1` (centres undefined) the figure was 660 s.
`COC(=O)c1ncn2c1C(=O)N(c1ccc(C)c(C)c1)C(C)(C(=O)NCc1ccccc1)C2` (centres undefined) returned an RP-LC retention time of 735 s.
Turning to `CC1=C(C(=O)O)N2C(=O)C(NC(=O)[C@H](N)c3ccccc3)[C@H]2SC1` (some centres undefined), the RP-LC retention time is 627 s.
In turn, `O=C(c1cccc(Br)c1)N1CCN(c2cc(-c3ccc(Cl)cc3)[nH]n2)CC1` registered an RP-LC retention time of 958 s.
Then `O=c1n(Cc2ccccc2F)nc2c(S(=O)(=O)N3CCCCCC3)cccn12`, with 938 s.
Consider `CCOc1ccc(-c2[nH]ncc2CNS(=O)(=O)Cc2ccccc2Cl)cc1`, for which the RP-LC retention time worked out at 846 s.
`CS(=O)(=O)N1CCC(C(=O)Nc2ccc(Br)cc2)Oc2ccccc21` (centres undefined) came in with an RP-LC retention time of 980 s.
For the compound `CCc1ccc(NC(=O)CN2CCN(Cc3ccc(F)cc3)C(=O)C2=O)cc1`, the RP-LC retention time came out at 818 s.
Take `COc1ccc(-c2c(C)noc2NC(C)=O)cc1S(=O)(=O)Nc1ccc(Br)cc1F`: the RP-LC retention time came out at 817 s.
Then `COc1nc2ccccc2nc1N1CCCC(C(=O)Nc2cc(C)c(Br)cc2C)C1` (centres undefined), with 1290 s; and `CCn1nnc(NCc2ccc(-c3ccc(Cl)cc3Cl)o2)n1`, with 1130 s.
`Cc1nnc(N2CCCC(C(=O)NCCN3CCOCC3)C2)c2nn(-c3ccc(Cl)cc3)c(C)c12` (centres undefined): the RP-LC retention time worked out at 590 s.
`O=C(NC1CCCCCC1)C1CCN(c2cncnc2N2CCOCC2)CC1` showed an RP-LC retention time of 635 s.
Consider `CCc1nnc([C@@H]2CC(F)(F)CN2C(=O)Cc2cc(C)no2)o1`, for which the RP-LC retention time was found to be 674 s.
With `COc1ccc(N2CCN(C(=O)c3cc(NC(=O)C(C)C)cc4nc(C)ccc34)CC2)cc1`, the RP-LC retention time is 636 s.
`COc1ccccc1N1CCN(CCNC(=O)Nc2ccc3c(c2)OCO3)CC1` had an RP-LC retention time of 569 s.
With `COc1ccc(-c2nnc(Cc3nc(-c4ccccc4)no3)o2)cc1OC` the figure was 949 s; with `NS(=O)(=O)c1ccc(CCNC(=O)c2ccc(=O)[nH]n2)cc1`, 542 s; with `COC[C@@H]1CN(S(=O)(=O)c2ccccc2)C[C@H]1c1ccncc1`, 624 s.
In the case of `CCC(C)NC(=O)c1ccc2c(c1)Sc1ncccc1C(=O)N2C(C)C` (centres undefined), the RP-LC retention time was found to be 784 s.
As for `CCn1cc(CCNC(=O)Nc2cc(OC)cc(OC)c2)c2cccnc21`, the RP-LC retention time was determined as 707 s.
The compound `CCN1CCCn2cc(S(=O)(=O)Nc3ccc(C)cc3C)cc2C1=O` registered an RP-LC retention time of 763 s.
Take `CCOc1ccc(-c2noc(CN3N=NC4C(=O)N(c5cccc(SC)c5)C(=O)C43)n2)cc1OC` (centres undefined): the RP-LC retention time came to 984 s.
In turn, `CCOC(=O)c1sc2ccccc2c1S(=O)(=O)Nc1ccc2c(c1)OCO2` came in with an RP-LC retention time of 968 s.
Then `CC(C)C(=O)NCCN1CCN(c2ccc(F)cc2)CC1`, with 561 s; and `Cc1cc(-c2nnc(-c3ccccc3)o2)c(C)n1CC(=O)NCC1CCCO1` (centres undefined), with 770 s.
Turning to `COc1cccc(-c2ccc(=O)n(Cc3nc(-c4ccc(OC(C)C)cc4)no3)n2)c1`, the RP-LC retention time was found to be 1140 s.
Turning to `COc1ccc(CNC(=O)CN2C(=O)NC3(CCC(C(C)(C)C)CC3)C2=O)cc1OC` (centres undefined), the RP-LC retention time was 863 s.
`Cc1cc(N2CCN(C)CC2)nc2ccc(NC(=O)Nc3ccc(F)cc3F)cc12` yielded an RP-LC retention time of 594 s.
With `Cc1ccc(NC(=O)C2CCCN(c3nc4c(s3)c(C)nn4-c3ccccc3)C2)c(C)c1` (centres undefined), the RP-LC retention time amounted to 1200 s.
For `O=C(N[C@H]1C[C@@H]2C[C@H]1N(C(=O)CSc1ccccc1)C2)c1ccccc1`, the RP-LC retention time was determined as 786 s.
In the case of `O=C(c1nc2nc(-c3ccco3)cc(C(F)(F)F)n2n1)N1CCN(c2ccccn2)CC1`, the RP-LC retention time is 630 s.
Compound `Cc1nc2c(sc3nc(-c4ccccc4)ccc32)c(=O)n1CC(=O)NCc1ccc(Cl)cc1` came in with an RP-LC retention time of 1210 s.
With `NC(N)=NCc1cccc(I)c1` the figure was 442 s.
Then `COc1ccc(C(=O)NC(CC(C)C)C(=O)Nc2nc3ccccc3[nH]2)cc1OC` (centres undefined), with 705 s; and `O=C(NCC1CCN(c2ncccn2)CC1)Nc1c(F)cccc1F`, with 610 s; and `O=S(=O)(c1ccccc1F)N1CCC(OCc2noc(C3CCCO3)n2)CC1` (centres undefined), with 865 s.
With `O=C(Cc1cccs1)N1CCC(COc2ccc(C(=O)N3CCOCC3)cc2)CC1` the figure was 734 s.
Consider `CCCS(=O)(=O)N1CC(=O)N(c2ccc(Cl)cc2C)C(C)(C(=O)NC2CCCCC2)C1` (centres undefined), for which the RP-LC retention time stood at 1040 s.
Compound `CC(C)Cc1nn(-c2ccccc2)cc1CN1CC(=O)NCC12CCCC2` registered an RP-LC retention time of 720 s.
Turning to `CCOC(=O)c1noc2nc(C)nc(Nc3cccc(F)c3)c12`, the RP-LC retention time was found to be 1120 s.
On to `COc1cccc(C2CC(c3ccc(Cl)cc3)=NC3(CCN(C(C)=O)CC3)N2)c1O` (centres undefined), for which the RP-LC retention time was 686 s.
`Cc1cc(NC2CCCC2)n2nc(-c3ccc(Cl)cc3)c(C)c2n1`: the RP-LC retention time came out at 855 s.
`Cc1cc(N2CCN(S(=O)(=O)c3cc(F)ccc3C)CC2)nc(NC2CCCCC2)n1` displayed an RP-LC retention time of 864 s.
Compound `CC(C)C(=O)NCC(c1ccc(N(C)C)cc1)N1CCN(c2ccc(F)cc2)CC1` (centres undefined) returned an RP-LC retention time of 592 s.
Compound `Cc1ccc2c(c1)N(Cc1nc(-c3ccc(F)cc3)no1)C(=O)CO2` came in with an RP-LC retention time of 1060 s.
With `O=S(=O)(Cc1ccccc1F)N1CCC(OCCOCc2ccccc2)CC1`, the RP-LC retention time is 1010 s.
On to `COc1cccc(-n2c(=O)c3sccc3n(Cc3nc(-c4ccc(C(C)(C)C)cc4)no3)c2=O)c1`, for which the RP-LC retention time was 1220 s.
Turning to `CC(C)n1nc(CNC(=O)c2ccc(Br)o2)c2ccccc21`, the RP-LC retention time turned out to be 926 s.
Then `COc1ccc(C(=O)N2CCc3ccc(C(=O)NCc4cccs4)cc32)cc1`, with 806 s; and `O=C(CCc1nnc2c3cc(-c4ccc(F)cc4)nn3ccn12)N1CCN(c2ccccn2)CC1`, with 611 s.
With `Cc1ccc(-c2noc(-c3ccc(N4CCN(c5ncccn5)CC4)nc3)n2)cc1` the figure was 1280 s; with `CCOc1nc2ccccc2nc1N1CCCC(C(=O)Nc2ccc(F)cc2)C1` (centres undefined), 1190 s.
In turn, `O=C(c1ccc2c(c1)CCN2C(=O)C1CC1)N1CCN(c2ccccc2)CC1` returned an RP-LC retention time of 829 s.
Compound `Cc1cccc(-c2nc(C3CC(=O)N(c4ccc(F)c(Cl)c4)C3)no2)c1` (centres undefined) registered an RP-LC retention time of 1140 s.
For `COc1ccc(-n2cc(C(=O)OCc3ccccn3)c3ccccc3c2=O)cc1`, the RP-LC retention time came out at 854 s.
